{"source": "patent US9062041B2", "about": "(Bayer Intellectual Property GmbH, priority 2011, dated 2015)", "type_in_all_cases": "cell-based", "key": {"[1]": {"target": "EP2 subtype of the human PGE2 receptor (Homo sapiens, UniProt P43116)", "sequence (P43116 whole entry)": "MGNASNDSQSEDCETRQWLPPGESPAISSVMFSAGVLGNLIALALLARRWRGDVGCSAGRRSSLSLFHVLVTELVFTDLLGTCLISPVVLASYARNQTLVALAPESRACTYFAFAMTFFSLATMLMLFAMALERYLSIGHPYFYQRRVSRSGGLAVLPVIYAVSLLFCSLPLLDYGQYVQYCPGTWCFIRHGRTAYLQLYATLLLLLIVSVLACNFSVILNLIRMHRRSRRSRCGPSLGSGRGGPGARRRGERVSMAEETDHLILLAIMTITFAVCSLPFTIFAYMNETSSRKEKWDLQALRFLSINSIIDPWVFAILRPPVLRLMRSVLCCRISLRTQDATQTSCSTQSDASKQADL", "assay": "cAMP antagonism test on the human EP2 receptor (HTRF cAMP detection)", "conditions": "hEP2 receptor, read-out: Antagonism hEP2 IC50", "from_the_text": "1. Detection of Antagonism to the Human Prostaglandin E2 (Subtype EP2) Receptor Signal\n(§1) The binding of PGE2 to the EP2 subtype of the human PGE2 receptor induces the activation of membrane-located adenylate cyclases and leads to the formation of cAMP. In the presence of the phosphodiesterase inhibitor IBMX, the cAMP accumulated owing to this stimulation and released by cell lysis is used in a competitive detection method. In this test, the cAMP present in the lysate competes with a fluorescence-labelled cAMP (cAMP-d2) for binding to an Eu cryptate-labelled anti-cAMP antibody.\n(§2) In the absence of cellular cAMP, a maximal signal is produced, which is attributable to the binding of this cAMP-d2 molecule to the antibody. After excitation of the […] at 337 nm, there is a fluorescence resonance energy transfer (FRET) to the Eu cryptate molecules of the anti-cAMP antibody (labelled therewith), followed by a long-lasting emission signal at 665 nm (and at […]). Both signals are measured in a suitable measurement instrument with a time delay, i.e. after decay of the background fluorescence. Any increase in the low FRET signal caused by prostaglandin E2 administration (measured as well ratio change=emission665 nm/emission620 nm*10000) indicates the action of antagonists.\n1.2.1. Test for Antagonism (Data Per Well of a 384-Well Plate):\n(§3) To a test plate with the substance solutions already added (0.05 μl; 100% DMSO, concentration range from 0.8 nM-16.5 μM) were added 4 μl of a cAMP-d2/cell suspension (625000 cells/ml). After a 20-minute preincubation at room temperature (RT), 2 μl of a 3×PGE2 solution (1.5 nM, in PBS-IBMX) were added and incubated in the presence of the agonist for a further 60 mins at RT (volume: ˜6 μl). Next the reaction was stopped by addition of 2 μl of lysis buffer and incubated for a further 20 mins at RT before the actual measurement (volume: ˜8 μl)."}, "[2]": {"target": "EP4 subtype of the human PGE2 receptor (Homo sapiens, UniProt P35408)", "sequence (P35408 whole entry)": "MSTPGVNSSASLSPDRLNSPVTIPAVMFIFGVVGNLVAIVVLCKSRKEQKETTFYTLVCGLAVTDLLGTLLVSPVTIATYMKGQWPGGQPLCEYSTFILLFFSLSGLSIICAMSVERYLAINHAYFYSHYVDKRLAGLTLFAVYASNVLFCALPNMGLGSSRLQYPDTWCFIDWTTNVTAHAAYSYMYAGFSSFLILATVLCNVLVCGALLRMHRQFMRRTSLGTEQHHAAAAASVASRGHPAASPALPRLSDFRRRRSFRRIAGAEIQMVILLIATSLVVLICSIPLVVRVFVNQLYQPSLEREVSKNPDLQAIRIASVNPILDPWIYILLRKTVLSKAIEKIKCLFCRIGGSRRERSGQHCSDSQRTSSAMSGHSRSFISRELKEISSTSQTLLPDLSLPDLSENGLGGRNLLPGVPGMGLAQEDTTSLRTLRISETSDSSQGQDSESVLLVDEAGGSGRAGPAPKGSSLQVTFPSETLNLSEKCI", "assay": "cAMP antagonism test on the human EP4 receptor (HTRF cAMP detection)", "conditions": "selectivity towards hEP4, IC50 measured by cAMP antagonism test", "from_the_text": "2. Detection of Antagonism to the Human Prostaglandin E2 (Subtype EP4) Receptor Signal\nas §1, with “EP4” for “EP2”\nas §2, with “cAMP” for “cAMP,”\n2.2.1. Test for Antagonism (Data Per Well of a 384-Well Plate):\nas §3, with “(312500” for “(625000”, “(0.3” for “(1.5”"}, "human PGD receptor": {"target": "T1, human PGD receptor (Homo sapiens, UniProt Q13258)", "T1 sequence (Q13258 1-359)": "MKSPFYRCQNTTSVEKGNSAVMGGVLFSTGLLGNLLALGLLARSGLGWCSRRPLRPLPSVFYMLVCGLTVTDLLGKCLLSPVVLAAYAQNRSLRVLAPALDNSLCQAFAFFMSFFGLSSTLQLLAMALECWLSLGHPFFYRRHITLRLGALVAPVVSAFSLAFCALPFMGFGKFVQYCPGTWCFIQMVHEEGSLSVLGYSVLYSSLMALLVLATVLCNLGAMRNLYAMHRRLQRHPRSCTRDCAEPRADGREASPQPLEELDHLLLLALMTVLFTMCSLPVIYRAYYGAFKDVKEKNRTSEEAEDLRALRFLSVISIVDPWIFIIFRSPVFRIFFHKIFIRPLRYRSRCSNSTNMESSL", "assay": "cAMP antagonism test on the human prostaglandin D receptor (HTRF cAMP detection)", "conditions": "selectivity towards hDP, IC50 measured by cAMP antagonism test", "from_the_text": "3. Detection of Antagonism to the Human Prostaglandin D Receptor Signal\nas §1, with “of prostaglandin D2” for “of PGE2”, “the” for “the EP2 subtype of the”, “human PGD” for “human PGE2”\nas §2\n3.2.1. Test for Antagonism (Data Per Well of a 384-Well Plate):\nas §3, with “3×PGD2” for “3×PGE2”, “(6” for “(1.5”, “30” for “60”"}}, "data": [{"smiles": "Cc1c(C(=O)NCCOCC2CC2)ccc2nn(CC3CCN(C(=O)c4ccc(Cl)cc4)CC3)cc12", "note": "[Example 84, 2-{[1-(4-chlorobenzoyl)piperidin-4-yl]methyl}-N-[2-(cyclopropylmethoxy)ethyl]-4-methyl-2H-indazol-5-carboxamide]", "values": [{"measurement": "IC50", "setting": "[1]", "value": 0.0192, "unit": "µM"}, {"measurement": "Selectivity hEP2/hEP4", "setting": "[2]", "value": "xxx (xxx > 100)"}, {"measurement": "Selectivity hEP2/hDP", "setting": "human PGD receptor", "value": "xxx (xxx > 100)"}]}, {"smiles": "Cc1c(C(=O)NCCOCC2CC2)ccc2nn(CC3CN(C(=O)c4ccc(-c5ccc(F)cc5)cc4)C3)cc12", "note": "[Example 157, N-[2-(cyclopropylmethoxy)ethyl]-2-({1-[(4′-fluorobiphenyl-4-yl)carbonyl]azetidin-3-yl}methyl)-4-methyl-2H-indazol-5-carboxamide]", "values": [{"measurement": "IC50", "setting": "[1]", "value": 0.0136, "unit": "µM"}, {"measurement": "Selectivity hEP2/hEP4", "setting": "[2]", "value": "xxx (xxx > 100)"}, {"measurement": "Selectivity hEP2/hDP", "setting": "human PGD receptor", "value": "xxx (xxx > 100)"}]}, {"smiles": "COC(C)CNC(=O)c1ccc2nn(CC3CN(C(=O)c4ccc(Oc5ccc(F)cc5)cc4)C3)cc2c1C", "note": "(racemic) [Example 147, (+/−)-2-({1-[4-(4-fluorophenoxy)benzoyl]azetidin-3-yl}methyl)-N-(2-methoxypropyl)-4-methyl-2H-indazol-5-carboxamide]", "values": [{"measurement": "IC50", "setting": "[1]", "value": 0.0574, "unit": "µM"}, {"measurement": "Selectivity hEP2/hEP4", "setting": "[2]", "value": "xxx (xxx > 100)"}, {"measurement": "Selectivity hEP2/hDP", "setting": "human PGD receptor", "value": "xxx (xxx > 100)"}]}, {"smiles": "COCCNC(=O)c1ccc2nn(CC3CCN(C(=O)c4ccc(F)cc4)CC3)cc2c1C", "note": "[Example 22, 2-{[1-(4-fluoro-benzoyl)piperidin-4-yl]methyl}-N-(2-methoxyethyl)-4-methyl-2H-indazol-5-carboxamide]", "values": [{"measurement": "IC50", "setting": "[1]", "value": 0.0303, "unit": "µM"}, {"measurement": "Selectivity hEP2/hEP4", "setting": "[2]", "value": "xxx (xxx > 100)"}, {"measurement": "Selectivity hEP2/hDP", "setting": "human PGD receptor", "value": "xxx (xxx > 100)"}]}, {"smiles": "CCOc1c(C(=O)NCCOC)ccc2nn(CC3CCN(C(=O)c4ccc(S(F)(F)(F)(F)F)cc4)CC3)cc12", "note": "[Example 275, 4-ethoxy-N-(2-methoxyethyl)-2-({1-[4-(pentafluoro-λ^6-sulphanyl)benzoyl]-piperidin-4-yl}methyl)-2H-indazol-5-carboxamide]", "values": [{"measurement": "IC50", "setting": "[1]", "value": 0.0345, "unit": "µM"}, {"measurement": "Selectivity hEP2/hEP4", "setting": "[2]", "value": "xxx (xxx > 100)"}, {"measurement": "Selectivity hEP2/hDP", "setting": "human PGD receptor", "value": "xxx (xxx > 100)"}]}, {"smiles": "Cc1c(C(=O)NCC(C)OCC2CC2)ccc2nn(CC3CCN(C(=O)c4ccc(C(F)(F)F)cc4)CC3)cc12", "note": "(racemic) [Example 104, (+/−)-N-[2-(cyclo-propylmethoxy)-propyl]-4-methyl-2-({1-[4-(trifluoro-mcthyl)benzoyl]-piperidin-4-yl}-methyl)-2H-indazol-5-carboxamide]", "values": [{"measurement": "IC50", "setting": "[1]", "value": 0.513, "unit": "µM"}, {"measurement": "Selectivity hEP2/hEP4", "setting": "[2]", "value": "xx (xx: 10-100)"}, {"measurement": "Selectivity hEP2/hDP", "setting": "human PGD receptor", "value": "xx (xx: 10-100)"}]}, {"smiles": "COCCNC(=O)c1ccc2nn(CC3CCN(C(=O)c4ccc(-c5ccc(F)cc5OC)cc4)CC3)cc2c1C", "note": "[Example 380, 2-({1-[(4′-fluoro-2′-methoxybiphenyl-4-yl)carbonyl]piperidin-4-yl}methyl)-N-(2-methoxyethyl)-4-methyl-2H-indazol-5-carboxamide]", "values": [{"measurement": "IC50", "setting": "[1]", "value": 0.00535, "unit": "µM"}, {"measurement": "Selectivity hEP2/hEP4", "setting": "[2]", "value": "xxx (xxx > 100)"}, {"measurement": "Selectivity hEP2/hDP", "setting": "human PGD receptor", "value": "xxx (xxx > 100)"}]}, {"smiles": "COCCNC(=O)c1ccc2nn(CC3CCN(C(=O)c4ccc(C)cc4)CC3)cc2c1C", "note": "[Example 12, N-(2-methoxyethyl)-4-methyl-2-{[1-(4-methylbenzoyl)-piperidin-4-yl]-methyl)-2H-indazol-5-carboxamide]", "values": [{"measurement": "IC50", "setting": "[1]", "value": 0.0203, "unit": "µM"}, {"measurement": "Selectivity hEP2/hEP4", "setting": "[2]", "value": "xxx (xxx > 100)"}, {"measurement": "Selectivity hEP2/hDP", "setting": "human PGD receptor", "value": "xxx (xxx > 100)"}]}, {"smiles": "Cc1c(C(=O)NCCOC(F)(F)F)ccc2nn(CC3CCN(C(=O)c4ccc(Oc5ccc(F)cc5)cc4)CC3)cc12", "note": "[Example 108, 2-({1-[4-(4-fluoro-phenoxy)benzoyl]-piperidin-4-yl}methyl)-4-methyl-N-[2-(tri-fluoromethoxy)ethyl]-2H-indazol-5-carboxamide]", "values": [{"measurement": "IC50", "setting": "[1]", "value": 0.00646, "unit": "µM"}, {"measurement": "Selectivity hEP2/hEP4", "setting": "[2]", "value": "xxx (xxx > 100)"}, {"measurement": "Selectivity hEP2/hDP", "setting": "human PGD receptor", "value": "xxx (xxx > 100)"}]}, {"smiles": "Cc1c(C(=O)NCCOCC2CC2)ccc2nn(CC3CCN(C(=O)c4ccc(-c5ccc(F)cc5)cc4)CC3)cc12", "note": "[Example 88, N-[2-(cyclopropyl-methoxy)ethyl]-2-({1-[(4′-fluorobiphenyl-4-yl)carbonyl]piperidin-4-yl}methyl)-4-methyl-2H-indazol-5-carboxamide]", "values": [{"measurement": "IC50", "setting": "[1]", "value": 0.0162, "unit": "µM"}, {"measurement": "Selectivity hEP2/hEP4", "setting": "[2]", "value": "xxx (xxx > 100)"}, {"measurement": "Selectivity hEP2/hDP", "setting": "human PGD receptor", "value": "xxx (xxx > 100)"}]}, {"smiles": "COCCNC(=O)c1ccc2nn(CC3CCN(C(=O)c4ccc(C(C)(C)O)cc4)CC3)cc2c1C", "note": "[Example 334, 2-({1-[4-(1-hydroxy-1-methylethyl)benzoyl]piperidin-4-yl}methyl)-N-(2-methoxyethyl)-4-methyl-2H-indazol-5-carboxamide]", "values": [{"measurement": "IC50", "setting": "[1]", "value": 0.0742, "unit": "µM"}, {"measurement": "Selectivity hEP2/hEP4", "setting": "[2]", "value": "xxx (xxx > 100)"}, {"measurement": "Selectivity hEP2/hDP", "setting": "human PGD receptor", "value": "xxx (xxx > 100)"}]}, {"smiles": "COCCNC(=O)c1ccc2nn(CC3CCN(C(=O)c4ccc(Oc5ccccc5)cc4)CC3)cc2c1C", "note": "[Example 19, N-(2-methoxyethyl)-4-methyl-2-{[1-(4-phenoxybenzoyl)-piperidin-4-yl]-methyl}-2H-indazol-5-carboxamide]", "values": [{"measurement": "IC50", "setting": "[1]", "value": 0.00857, "unit": "µM"}, {"measurement": "Selectivity hEP2/hEP4", "setting": "[2]", "value": "xxx (xxx > 100)"}, {"measurement": "Selectivity hEP2/hDP", "setting": "human PGD receptor", "value": "xxx (xxx > 100)"}]}, {"smiles": "Cc1c(C(=O)NCCOC(C)C)ccc2nn(CC3CCN(C(=O)c4ccc(C(F)(F)F)cc4)CC3)cc12", "note": "[Example 99, N-(2-isopropoxy-ethyl)-4-methyl-2-({1-[4-(trifluoro-methyl)benzoyl]-piperidin-4-yl}-methyl)-2H-indazol-5-carboxamide]", "values": [{"measurement": "IC50", "setting": "[1]", "value": 0.0104, "unit": "µM"}, {"measurement": "Selectivity hEP2/hEP4", "setting": "[2]", "value": "xxx (xxx > 100)"}, {"measurement": "Selectivity hEP2/hDP", "setting": "human PGD receptor", "value": "xxx (xxx > 100)"}]}, {"smiles": "Cc1c(C(=O)NCCOCC(F)(F)F)ccc2nn(CC3CN(C(=O)c4ccc(Oc5ccc(C(F)(F)F)cc5)cc4)C3)cc12", "note": "[Example 163, 4-methyl-N-[2-(2,2,2-trifluoroethoxy)ethyl]-2-[(1-{4-[4-(trifluoromethyl)phenoxy]benzoyl}azetidin-3-yl)methyl]-2H-indazol-5-carboxamide]", "values": [{"measurement": "IC50", "setting": "[1]", "value": 0.0068, "unit": "µM"}, {"measurement": "Selectivity hEP2/hEP4", "setting": "[2]", "value": "xxx (xxx > 100)"}, {"measurement": "Selectivity hEP2/hDP", "setting": "human PGD receptor", "value": "xxx (xxx > 100)"}]}]}
